# Source: patent US7553867B2, “Furan or thiophene derivative and medicinal use thereof” (Takeda Pharmaceutical Company Limited, priority 2002, dated 2009)
row,Compound,melting point
1,"Cc1oc(-c2ccc(C(F)(F)F)cc2)cc1COc1ccc2sc(CCC(=O)O)cc2c1 [Example 6(103), 3-[5-({2-Methyl-5-[4-(trifluoromethyl)phenyl]-3-furyl}methoxy)-1-benzothien-2-yl]propionic acid]",187 to 188 °C
2,"CCc1oc(-c2ccc(C(F)(F)F)cc2)cc1CCCOc1cccc(CC(=O)O)c1C [Example 6(50), [3-(3-{2-Ethyl-5-[4-(trifluoromethyl)phenyl]-3-furyl}propoxy)-2-methylphenyl]acetic acid]",109 to 110 °C
3,"Cc1oc(-c2ccc(C(F)(F)F)cc2)cc1COc1ccc(SC(C)(C)C(=O)O)cc1 [Example 6(88), 2-Methyl-2-{[4-({2-methyl-5-[4-(trifluoromethyl)phenyl]-3-furyl}methoxy)phenyl]thio}propionic acid]",128 to 129 °C
4,"Cc1oc(-c2ccc(F)cc2)cc1COc1cccc(C(C)SC(C)(C)C(=O)O)c1 (stereo not drawn) [Example 6(65), 2-{[1-(3-{[5-(4-Fluorophenyl)-2-methyl-3-furyl]methoxy}phenyl)ethyl]thio}-2-methylpropionic acid]",89 to 90 °C
5,"Cc1oc(-c2ccccc2)cc1COc1cccc(CSC(C)(C)C(=O)O)c1 [Example 6(119), 2-Methyl-2-({3-[(2-methyl-5-phenyl-3-furyl)methoxy]benzyl}thio)propionic acid]",113 to 114 °C
6,"Cc1cc(-c2ccc(C(F)(F)F)cc2)oc1COc1ccc(OC(C)(C)C(=O)O)cc1 [Example 20(2), 2-Methyl-2-[4-({3-methyl-5-[4-(trifluoromethyl)phenyl]-2-furyl}methoxy)phenoxy]propionic acid]",116 to 117 °C
7,"Cc1nc(SCc2cc(-c3ccc(F)cc3)oc2C)sc1CC(=O)O [Example 6(18), [2-({[5-(4-Fluorophenyl)-2-methyl-3-furyl]methyl}thio)-4-methyl-1,3-thiazol-5-yl]acetic acid]",202 to 205 °C
8,"CCc1oc(-c2ccc(C(F)(F)F)cc2)cc1CCCOc1ccc(C(C)(C)C(=O)O)cc1 [Example 6(44), 2-[4-(3-{2-Ethyl-5-[4-(trifluoromethyl)phenyl]-3-furyl}propoxy)phenyl]-2-methylpropionic acid]",102 to 103 °C
9,"Cc1oc(-c2ccc(C(F)(F)F)cc2)cc1CC(=O)Nc1cccc(CSCC(=O)O)c1 [Example 4(1), ({3-[({2-Methyl-5-[4-(trifluoromethyl)phenyl]-3-furyl}acetyl)amino]benzyl}thio)acetic acid]",173 to 174 °C
10,"Cc1oc(-c2ccc(C(F)(F)F)cc2)cc1COc1cccc(C(C)(C)C(=O)O)c1 [Example 6(85), 2-Methyl-2-[3-({2-methyl-5-[4-(trifluoromethyl)phenyl]-3-furyl}methoxy)phenyl]propionic acid]",127 to 128 °C
11,"Cc1cc(OCc2cc(-c3ccc(C(F)(F)F)cc3)oc2C)ccc1CC(=O)O [Example 6(3), [2-Methyl-4-({2-methyl-5-[4-(trifluoromethyl)phenyl]-3-furyl}methoxy)phenyl]acetic acid]",147 to 149 °C
12,"Cc1oc(-c2ccc(C(F)(F)F)cc2)cc1COc1cccc(CSC(C)(C)C(=O)O)c1F [Example 6(96), 2-{[2-Fluoro-3-({2-methyl-5-[4-(trifluoromethyl)phenyl]-3-furyl}methoxy)benzyl]thio}-2-methylpropionic acid]",106 to 108 °C
13,"Cc1oc(-c2ccc(C(F)(F)F)cc2)cc1/C=C\c1ccc(OC(C)(C)C(=O)O)cc1 [Example 22(2), 2-Methyl-2-[4-((Z)-2-{2-methyl-5-[4-(trifluoromethyl)phenyl]-3-furyl}ethenyl)phenoxy]propionic acid]",117 to 118 °C
14,"Cc1oc(-c2ccc(C(F)(F)F)cc2)cc1COc1cccc(SC(C)(C)C(=O)O)c1 [Example 6(118), 2-Methyl-2-{[3-({2-methyl-5-[4-(trifluoromethyl)phenyl]-3-furyl}methoxy)phenyl]thio}propionic acid]",127 to 128 °C
15,"CCCc1cc(OCc2cc(-c3ccc(C(F)(F)F)cc3)oc2C)ccc1CCC(=O)O [Example 6(91), 3-[4-({2-Methyl-5-[4-(trifluoromethyl)phenyl]-3-furyl}methoxy)-2-propylphenyl]propionic acid]",129 to 131 °C
16,"CCc1oc(-c2ccc(C(F)(F)F)cc2)cc1CCCOc1nn(CC(=O)O)c2ccccc12 [Example 6(100), [3-(3-{2-Ethyl-5-[4-(trifluoromethyl)phenyl]-3-furyl}propoxy)-1H-indazol-1-yl]acetic acid]",139 to 140 °C
17,"CCC(Cc1ccc(OCc2cc(-c3ccc(C(F)(F)F)cc3)oc2C)cc1C)C(=O)O (stereo not drawn) [Example 6(75), 2-[2-Methyl-4-({2-methyl-5-[4-(trifluoromethyl)phenyl]-3-furyl}methoxy)benzyl]butanoic acid]",118 to 119 °C
18,"Cc1nc(CCCc2cc(-c3ccc(C(F)(F)F)cc3)oc2C)sc1CC(=O)O [Example 13(4), [4-Methyl-2-(3-{2-methyl-5-[4-(trifluoromethyl)phenyl]-3-furyl}propyl)-1,3-thiazol-5-yl]acetic acid]",162 to 163 °C

row,Compound,melting point
1,"Cc1oc(-c2ccc(C(F)(F)F)cc2)cc1CCCOc1ccc(CC(=O)O)cc1 [Example 6(8), [4-(3-{2-Methyl-5-[4-(trifluoromethyl)phenyl]-3-furyl}propoxy)phenyl]acetic acid]",113 to 114 °C
2,"Cc1oc(-c2cccc(F)c2)cc1COc1ccc(SC(C)(C)C(=O)O)cc1 [Example 6(115), 2-[(4-{[5-(3-Fluorophenyl)-2-methyl-3-furyl]methoxy}phenyl)thio]-2-methylpropionic acid]",146 to 147 °C
3,"Cc1oc(-c2ccc(F)cc2)cc1COc1cccc(COCC(=O)O)c1 [Example 6(11), [(3-{[5-(4-Fluorophenyl)-2-methyl-3-furyl]methoxy}benzyl)oxy]acetic acid]",109 to 110 °C
4,"Cc1oc(-c2ccc(C(F)(F)F)cc2)cc1COc1ccc2cc(CCC(=O)O)ccc2c1 [Example 6(34), 3-[6-({2-Methyl-5-[4-(trifluoromethyl)phenyl]-3-furyl}methoxy)-2-naphthyl]propionic acid]",191 to 192 °C
5,"Cc1oc(-c2ccc(C(F)(F)F)cc2)cc1COc1ccc(CC(C)(C)C(=O)O)cc1 [Example 6(78), 2,2-Dimethyl-3-[4-({2-methyl-5-[4-(trifluoromethyl)phenyl]-3-furyl}methoxy)phenyl]propionic acid]",125 to 127 °C
6,"Cc1oc(-c2ccc(C(F)(F)F)cc2)cc1COc1cc(CSC(C)(C)C(=O)O)ccc1Cl [Example 6(99), 2-{[4-Chloro-3-({2-methyl-5-[4-(trifluoromethyl)phenyl]-3-furyl}methoxy)benzyl]thio}-2-methylpropionic acid]",140 to 142 °C
7,"COC(Cc1ccc(OCc2cc(-c3ccc(C(F)(F)F)cc3)oc2C)cc1C)C(=O)O (stereo not drawn) [Example 6(77), 2-Methoxy-3-[2-methyl-4-({2-methyl-5-[4-(trifluoromethyl)phenyl]-3-furyl}methoxy)phenyl]propionic acid]",125 to 126 °C
8,"CCCC(SCc1cccc(OCc2cc(-c3ccc(C(F)(F)F)cc3)oc2C)c1)C(=O)O (stereo not drawn) [Example 9(4), 2-{[3-({2-Methyl-5-[4-(trifluoromethyl)phenyl]-3-furyl}methoxy)benzyl]thio}pentanoic acid]",61 to 62 °C
9,"COc1cc(OCc2cc(-c3ccc(C(F)(F)F)cc3)oc2C)ccc1CC(=O)O [Example 6(10), [2-Methoxy-4-({2-methyl-5-[4-(trifluoromethyl)phenyl]-3-furyl}methoxy)phenyl]acetic acid]",168 to 169 °C
10,"Cc1oc(-c2ccc(C(F)(F)F)cc2)cc1CCc1nc(C(C)C)c(CC(=O)O)s1 [Example 13(3), [4-Isopropyl-2-(2-{2-methyl-5-[4-(trifluoromethyl)phenyl]-3-furyl}ethyl)-1,3-thiazol-5-yl]acetic acid]",176 to 177 °C
11,"Cc1oc(-c2cccc(C(F)(F)F)c2)cc1COc1ccc(SC(C)(C)C(=O)O)cc1 [Example 6(108), 2-Methyl-2-{[4-({2-methyl-5-[3-(trifluoromethyl)phenyl]-3-furyl}methoxy)phenyl]thio}propionic acid]",108 to 109 °C
12,"Cc1oc(-c2ccc(C(F)(F)F)cc2)cc1CCOc1ccc(OCC(=O)O)cc1 [Example 6(23), [4-(2-{2-Methyl-5-[4-(trifluoromethyl)phenyl]-3-furyl}ethoxy)phenoxy]acetic acid]",132 to 133 °C
13,"CCCCc1oc(-c2ccc(C(F)(F)F)cc2)cc1CCCOc1cccc(CC(=O)O)c1 [Example 6(15), [3-(3-{2-Butyl-5-[4-(trifluoromethyl)phenyl]-3-furyl}propoxy)phenyl]acetic acid]",80 to 82 °C
14,"Cc1oc(-c2ccc(C(F)(F)F)cc2)cc1CCc1nc(C(C)C)c(CC(=O)O)o1 [Example 13(7), [4-Isopropyl-2-(2-{2-methyl-5-[4-(trifluoromethyl)phenyl]-3-furyl}ethyl)-1,3-oxazol-5-yl]acetic acid]",126 to 128 °C
15,"O=C(O)CSCc1cccc(OCc2cc(-c3ccccc3)oc2C(F)(F)F)c1 [Example 5(4), [(3-{[5-Phenyl-2-(trifluoromethyl)-3-furyl]methoxy}benzyl)thio]acetic acid]",84 to 85 °C
16,"Cc1oc(-c2ccc(C(F)(F)F)cc2)cc1CCCOc1cccc(CC(=O)O)c1 [Example 6(84), [3-(3-{2-Methyl-5-[4-(trifluoromethyl)phenyl]-3-furyl}propoxy)phenyl]acetic acid]",111 to 113 °C
17,"Cc1oc(-c2ccc(Cl)cc2)cc1COc1ccc(SC(C)(C)C(=O)O)cc1 [Example 6(114), 2-[(4-{[5-(4-Chlorophenyl)-2-methyl-3-furyl]methoxy}phenyl)thio]-2-methylpropionic acid]",130 to 131 °C
18,"Cc1oc(-c2ccc(C(F)(F)F)cc2)cc1COc1ccc2oc(CCC(=O)O)cc2c1 [Example 6(89), 3-[5-({2-Methyl-5-[4-(trifluoromethyl)phenyl]-3-furyl}methoxy)-1-benzofuran-2-yl]propionic acid]",156 to 157 °C
